Data set [1] can be described thus: Plasma pharmacokinetics of ivermectin in cattle. It counts as in vivo. As to the method: (§1) Formulations according to the invention were tested for their efficacy in delivering benzimidazoles and macrocyclic lactones to the bloodstream of mammals (cattle), and compared to the efficacy in delivering these agents to animals' bloodstreams by standard commercially available drench (Fasinex 120®), and an experimental solvent-based triclabendazole/ivermectin pour-on formulation.
Cattle (typically Hereford or Hereford cross) with either natural or artificially infected burdens of fluke and nematodes were used in pen and field trials. Within a given trial animals were allotted into treatment groups, each having similar mean weights and fluke and nematode burdens. Experimental treatments were applied along the backline using a commercially available backliner gun fitted with a plastic shroud to ensure correct delivery of the formulation according to the protocol.
(§2) Blood samples (plasma) were taken by venipuncture of the jugular vein at the designated time intervals. Analysis for triclabendazole and ivermectin residues in the plasma was carried out and reported by commercial contract laboratories.
Ivermectin was extracted from the plasma using acetonitrile and concentrated by evaporation. The sample was cleaned up by solid phase extraction (SPE) chromatography and the ivermectin determined as the N-methyl imidazole derivative using reverse phase HPLC with fluorescence detection.

Data set [2] can be described thus: Plasma pharmacokinetics of triclabendazole (with sulphone and sulphoxide metabolites) in cattle. It counts as in vivo. As to the method:
as §1
Cattle (typically Hereford or Hereford cross) with either natural or artificially infected burdens of fluke and nematodes were used in pen and field trials. […] Experimental treatments were applied along the backline using a commercially available backliner gun fitted with a plastic shroud to ensure correct delivery of the formulation according to the protocol.
as §2
The triclabendazole was extracted from the plasma using ethyl acetate. Following concentration and SPE clean up, the triclabendazole and its sulphone and sulphoxide metabolites were analysed by reverse phase HPLC using UV detection.

The mark [3] stands for this setting: Table 2 pour-on 90 g/L triclabendazole + 10.0 g/L ivermectin, 1 mL/10 kg, 1.0 mg/kg.
Where [4] appears, read: Table 2 pour-on 120 g/L triclabendazole + 5.0 g/L ivermectin, 1 mL/10 kg, 0.5 mg/kg.
The mark [5] stands for this setting: Table 2 pour-on 180 g/L triclabendazole + 7.5 g/L ivermectin, 1 mL/10 kg, 0.75 mg/kg.
Where [6] appears, read: Table 3 pour-on 240 g/L triclabendazole + 3.33 g/L ivermectin (triethanolamine), 1 ml/6.67 kg, 0.5 mg/kg.
Where [7] appears, read: Table 3 pour-on 240 g/L triclabendazole + 5 g/L ivermectin (sodium dodecyl sulphate), 1 ml/10 kg, 0.5 mg/kg.
[8] abbreviates: Table 3 pour-on 240 g/L triclabendazole + 10 g/L ivermectin (triethanolamine), 1 ml/20 kg, 0.5 mg/kg.
Setting [9] is: Table 4 pour-on 180 g/L triclabendazole + 7.5 g/L ivermectin, 1 mL/15 kg, mean treatment area 110 cm^2, 0.5 mg/kg.
[10] abbreviates: Table 4 pour-on 240 g/L triclabendazole + 10.0 g/L ivermectin, 1 mL/20 kg, mean treatment area 76 cm^2, 0.5 mg/kg.

Turning to 22,23-dihydroavermectin B1 [Ivermectin], the “Ivermectin AUC” value in data set [1] (setting [3]) was determined as 88 ng·days/mL; in data set [1] (setting [4]) it was 52 ng·days/mL; in data set [1] (setting [5]), 79 ng·days/mL; in data set [1] (setting [6]) it was 82 ng·days/mL; in data set [1] (setting [7]) it was 84 ng·days/mL; in data set [1] (setting [8]), 104 ng·days/mL. Besides, the “Ivermectin AUC” value stood at 30 ng·days/mL in data set [1] (setting [9]) and 43 ng·days/mL in data set [1] (setting [10]). Besides, the “Ivermectin Mean plasma” value in data set [1] (setting [3]) was 4.4 ng/mL; in data set [1] (setting [4]) it was 2.5 ng/mL; in data set [1] (setting [5]) it was 4.1 ng/mL. Also, the “Ivermectin Plasma Cmax” value in data set [1] (setting [3]) is 8 ng/mL; in data set [1] (setting [4]) it was 8 ng/mL; in data set [1] (setting [5]) it was 13 ng/mL; in data set [1] (setting [6]) it was 7.5 ng/mL; in data set [1] (setting [7]), 9.5 ng/mL; in data set [1] (setting [8]) it was 10.4 ng/mL. In addition, the “Ivermectin Tmax” value worked out at 120 h in data set [1] (setting [3]); 120 h in data set [1] (setting [4]); 120 h in data set [1] (setting [5]); 170 h in data set [1] (setting [6]); 120 h in data set [1] (setting [7]); 170 h in data set [1] (setting [8]). Moreover, the results for the “Ivermectin Mean plasma conc^n” value in data set [1] (setting [9]) and in data set [1] (setting [10]) were 1.7 ng/mL and 2.2 ng/mL, respectively.

Regarding `CSc1nc2cc(Cl)c(Oc3cccc(Cl)c3Cl)cc2[nH]1` [Triclabendazole, 5-chloro-6-(2,3-dichlorophenoxy)-2-(methylthio)-benzimidazole], the “Triclabendazole AUC” value in data set [2] (Table 2 pour-on 90 g/L triclabendazole + 10.0 g/L ivermectin, 1 mL/10 kg, 9.0 mg/kg) turned out to be 72 µg·days/mL; in data set [2] (Table 2 pour-on 120 g/L triclabendazole + 5.0 g/L ivermectin, 1 mL/10 kg, 12 mg/kg), 85 µg·days/mL; in data set [2] (Table 2 pour-on 180 g/L triclabendazole + 7.5 g/L ivermectin, 1 mL/10 kg, 18 mg/kg), 139 µg·days/mL; in data set [2] (Table 3 pour-on 240 g/L triclabendazole + 3.33 g/L ivermectin (triethanolamine), 1 ml/6.67 kg, 36 mg/kg), 177 µg·days/mL; in data set [2] (Table 3 pour-on 240 g/L triclabendazole + 5 g/L ivermectin (sodium dodecyl sulphate), 1 ml/10 kg, 24 mg/kg), 129 µg·days/mL; in data set [2] (Table 3 pour-on 240 g/L triclabendazole + 10 g/L ivermectin (triethanolamine), 1 ml/20 kg, 12 mg/kg), 73 µg·days/mL. Besides, the “Triclabendazole AUC” value in data set [2] (Table 4 pour-on 180 g/L triclabendazole + 7.5 g/L ivermectin, 1 mL/15 kg, mean treatment area 110 cm^2, 12.0 mg/kg) amounted to 65 µg·days/mL; in data set [2] (Table 4 pour-on 240 g/L triclabendazole + 10.0 g/L ivermectin, 1 mL/20 kg, mean treatment area 76 cm^2, 12.0 mg/kg), 170 µg·days/mL.

These data come from patent US20060121072A1, “Topical parasiticide formulations and methods of treatment” (priority 2002, published 2006).
